Common to all, as to test: DTP human tumour cell line panel, 48 h
Assay [1] has as its system UACC-62 melanoma.
Assay [2] has as its system NCI-H23 lung.
Assay [3] has as its system M14 melanoma.
The test system of assay [4] is HT29 colon.
Assay [5] has as its system SNB-19 CNS.
Assay [6] concerns KM12 colon.
The subject of assay [7] is SK-MEL-2 melanoma.
The test system of assay [8] is MALME-3M melanoma.
Assay [9] concerns LOX IMVI melanoma.
Assay [10] deals with U251 CNS.

Values joined by “and” are separate entries in the source; they are usually repeats but may differ in a detail not shown here. Identical values can stand only once.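 Each compound was tested at five concentrations against cells in 96-well plates for 48 hours. TGI: total growth inhibition.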

Broadly, the TGI is the concentration giving total growth inhibition. A higher TGI goes with less potent growth arrest.

For the molecule `CC(C)c1cccc(C(C)C)c1NC(=O)C(=O)Cc1nc2ccc([N+](=O)[O-])cc2[nH]c1=O`, the TGI in [1] was above 100 µM; in [2], above 100 µM; in [3], above 100 µM; in assay [4] it was above 100 µM; in assay [5], above 100 µM; in assay [6], 28.7 µM. Also, the TGI in [7], in assay [8] and in assay [9] was above 100 µM each time.
With `CC(C)(C)OC(=O)NC1CCCC1C(=O)C1=CCCC1` (configuration not stated), the TGI in assay [1], in [2], in [3], in [10], in assay [4] and in assay [5] was above 100 µM throughout. Further, the TGI in assay [6], in assay [7] and in [9] was above 100 µM throughout.
On to `CSc1nc(=S)[nH]c2c1c(C)nn2-c1ccccc1`, for which the TGI in assay [1] is 35.3 µM; in [2], 45.8 µM; in assay [3] it was above 100 µM; in [10] it was above 100 µM; in assay [4] it was above 100 µM; in [5] it was above 100 µM. Further, the TGI was 68.5 µM in [7], 41.5 µM in [8] and above 100 µM in assay [9].
On to `Nc1nc(NNc2cccc(F)c2)cc(=O)[nH]1`, for which the TGI was above 100 µM in assay [2]; above 100 µM in [3]; 42.9 µM in assay [10]; 54.6 µM in assay [4]; above 100 µM in assay [5]; 56.8 µM in [6]. Further, the TGI was above 100 µM in assay [8] and 43.2 µM in [9].
Take `CCS(=O)C(=O)N(O)c1ccc(Cl)cc1` (configuration not stated): the TGI is 22.9 µM in [1]; 35.1 µM in [3]; 44.6 µM in assay [10]; above 100 µM in assay [5]; 47.2 µM in [6]; 56.7 µM in assay [7]. The same molecule displayed a TGI in [9] of 53.1 µM.
`COC(=O)c1ccc2c(c1)CC1(C2)Cc2cc3c(cc2C1)CCC3`: the TGI in assay [2], in assay [3], in assay [10], in [4], in [5] and in assay [7] was above 100 µM throughout. The TGI in [8] and in [9] was above 100 µM in each case.
For the molecule `CSc1ncnc2c1cnn2Cc1cnnn1COCC(O)CO` (configuration not stated), the TGI in [1], in assay [2], in assay [3], in [10], in assay [4] and in assay [5] was above 100 µM in each case. Further, the total growth inhibition concentration (TGI) in assay [6], in [7] and in assay [9] was above 100 µM in each case.
As to `O=C1N=C2SC=C(NC(=S)Nc3ccccc3)N2NC12c1ccccc1-c1ccccc12`, the concentration for total growth inhibition (TGI) in assay [1], in assay [2], in [3], in [4], in assay [5] and in assay [6] was above 10 µM each time. Further, the TGI in assay [8] and in assay [9] was above 10 µM each time.
With `CC(=O)Nc1[nH]n(C)c(=O)c1-c1nnc(C)s1`, the TGI in assay [2], in assay [3], in [10], in assay [4], in assay [5] and in assay [6] was above 100 µM in each case. Moreover, the TGI in assay [7], in [8] and in assay [9] was above 100 µM each time.
Take `COc1cc2c(c(OC)c1OC)-c1ccc(SC)c(=O)cc1[C@@H](NCc1ccc(F)cc1)CC2`: the TGI was below 0.0075 µM in [4]; 75 µM in assay [5]; 34.2 µM and 28.4 µM in [8]; 11.9 µM and 13.5 µM in assay [9].
Consider `C=CCCC1(O)C(O)C(CO)O[C@H](O[C@@]2(CO)OC(CO)C(O)C2O)C1O` (some centres not stated), for which the TGI in assay [2], in assay [3], in assay [10], in assay [4], in assay [5] and in assay [6] was above 100 µM in each case. Besides, the TGI in [8] and in assay [9] was above 100 µM each time.
For the molecule `CCOC1=C2N=C(C(CC)c3ccccc3F)N=C2C(=O)c2ccccc21` (configuration not stated), the TGI in assay [1], in assay [2], in [3], in assay [10], in [4] and in assay [5] was above 100 µM each time. Further, the TGI in assay [6], in assay [7] and in assay [8] was above 100 µM throughout.
Consider `CC(C)C1CNC(=O)C2(C=NC(C(C)C)CNC(=O)C3(C=N1)CCCO3)CCCO2` (configuration not stated), for which the TGI in assay [1], in assay [2], in assay [3], in assay [10], in assay [4] and in assay [5] was above 10 µM throughout. Also, the TGI in [6] and in assay [8] was above 10 µM in each case.
With `O=Cc1c[nH]c2c(=O)[nH]cnc12`, the TGI in assay [1], in [2], in assay [3], in assay [4], in [5] and in assay [6] was above 100 µM in each case. Also, the TGI in assay [7], in [8] and in assay [9] was above 100 µM throughout.
Regarding `COCC(C)(C)N=CN1Cc2cc3ccccc3nc2C1`, the TGI in assay [1], in [2], in assay [3], in [10], in assay [4] and in [5] was above 100 µM throughout. Moreover, the TGI in assay [6], in [7] and in assay [8] was above 100 µM each time.
With `Cc1c(C)c2c(c(N)c1C#N)C(=O)N(O)C2=O`, the TGI in assay [1], in [2], in [3], in assay [10], in [4] and in [5] was above 100 µM in each case. Moreover, the TGI in assay [6], in [7] and in assay [8] was above 100 µM each time.

The values are drawn from PubChem BioAssay (NCI).
